Experimental data published in US20180021270A1, “METHODS FOR THE TREATMENT OF CANCER USING COENZYME Q10 IN COMBINATION WITH IMMUNE CHECKPOINT MODULATORS” (Berg LLC, priority 2016, published 2018).

Experiments:
human PBMCs (T cells) = assay: Frequency of immune cell populations within PBMCs by flow cytometry; assay type: cell-based; conditions: 0-800 μM, 24 hours, dose dependent; greater effect in PHA-stimulated than unstimulated cells
Method: PBMCs isolated from healthy human donor leukopaks were isolated and cryopreserved. To study the effect of Coenzyme Q10, cells were thawed, rested overnight and treated with or without phytohemagglutinin (PHA). PHA is a lectin protein found in plants which activates T cells by inducing mitosis. Various concentrations of Coenzyme Q10 (0, 12.5, 50, 200, 400 or 800 μM) were added to the cells at the same time. 24 hours to 72 hours post-treatment, frequency and viability of immune cell subpopulations was evaluated, as well as proliferative potential, cytokine secretion, and inhibitory receptor surface expression.
The frequency of different immune cell populations within PHA stimulated or unstimulated human PBMCs concurrently treated with Coenzyme Q10 (0, 12.5, 50, 200, 400 or 800 μM) was evaluated by flow cytometry. 24 hours post treatment, PBMCs were analyzed for the surface markers CD3/CD8, CD3/CD4, CD3/CD56, or CD19/CD14. Frequency of immune cell subtypes was quantified by percentage of cells gated for T cells (CD3/CD8/CD4), natural killer T cells (NKT), natural killer (NK) cells, B cells, and monocytes. Cells from 5 healthy donors were tested.

[1] = system: tumor associated macrophages (TAMs) in murine Pan02 pancreatic tumors; assay: F4/80 IHC pathological scoring of tumor associated macrophages in Pan02 tumors; assay type: in vivo, mouse
Method: Pancreatic tumor samples from mice treated with different doses of Coenzyme Q10 were analyzed for the presence of tumor associated macrophages (TAMs). TAMs are found in close proximity to or within tumors and support tumor growth. C57B1/6 female mice were inoculated with Pan02 cells. When tumors reached a mean volume of 100 mm^3, animals were randomized into four groups and treated with vehicle control or Coenzyme Q10 (25, 50 or 100 mg/kg) twice daily for 21 days. At the end of the study, tumors were removed and subjected to immunohistochemistry (IHC) analysis for TAMs using the F4/80 marker. All slides were subjected to a pathological scoring. […] As shown in FIGS. 28A and 28B, Coenzyme Q10 decreased TAMs in a dose dependent manner.

[2] = system: PD-L1 protein on the surface of mouse syngeneic tumor cell lines; assay: PD-L1 protein on the surface of mouse syngeneic tumor cells; assay type: cell-based; conditions: with or without INFγ, IC50 amount of Coenzyme Q10, 24 hours
Method: The effect of Coenzyme Q10 on the level of PD-L1 protein on the surface of the mouse syngeneic tumor cells was also evaluated. Mouse syngeneic tumor cell lines from different tissue types were cultured with or without interferon γ (INFγ) in the presence or absence of their corresponding IC50 amount of Coenzyme Q10 at 37° C. for 24 hours.

[3] = system: human T cells within PBMCs; assay: T cell proliferation by Click-iT EdU flow cytometry; assay type: cell-based; conditions: 200 μM Coenzyme Q10, 72 hours, EdU final 18 hours
Method: Proliferation of T cells was assessed by flow cytometry using Click-iT® EdU technology (Thermo Fisher Scientific, Waltham, Mass.), a proliferation assay that is optimized for fluorescence microscopy applications. In this assay, the modified thymidine analogue EdU is incorporated into newly synthesized DNA and fluorescently labeled with a bright, photostable Alexa Fluor® dye. PBMCs were obtained from three different human donors. PBMCs were incubated with or without PHA for 72 hours while concurrently treated with Coenzyme Q10 (200 μM). 10 μM of EdU was added for the final 18 hours and stained with Invitrogen Alexa Fluor 488 piclyl azide according to the manufacturer's protocol. Cells were then stained with surface marker antibodies for CD3/CD8, or CD3/CD4 to identify cytotoxic T cells or helper T cells, respectively. Cells were then analyzyed by flow cytometry applying gating strategy.

[4] = system: T cell surface proteins in buffy coat; assay: Proteomic analysis of buffy coat samples from cancer patients administered Coenzyme Q10; assay type: in vivo, human; conditions: patients with solid tumors, intravenous 4% Coenzyme Q10 nanosuspension; start vs end of treatment
Method: The ability of Coenzyme Q10 to modulate immune function in cancer patients was investigated by characterizing the molecular signature in buffy coats of patients administered Coenzyme Q10 for the treatment of solid tumors. A sterile Coenzyme Q10 (Ubidecarenone, USP) nanosuspension was administered intravenously to patients with solid tumors. Coenzyme Q10 was evaluated both as a monotherapy and in combination with standard chemotherapeutic agents (e.g. gemcitabine, 5-fluorouracil and docetaxel). The Coenzyme Q10 was provided as a 4% coenzyme Q10 nanosuspension formulation as described in WO 2011/112900, the entire contents of which are expressly incorporated herein by reference.
The effect of Coenzyme Q10 treatments on protein expression in immune cells within the buffy coat was evaluated. Furthermore, it was determined whether the proteins identified were known to be on the surface of T cells. To complete this analysis, buffy coat samples were subjected to shot gun global proteomic analysis, and a comprehensive list of proteins were generated for samples obtained from 25 patients being treated for solid tumors with Coenzyme Q10 as described above.
For proteomic analysis, data from two publically available T cell proteomic studies were combined. See Graessel A. et al., 2015, Molecular and Cellular Proteomics 14: 2085-2102; and Loyet K. M. et al., 2005, Proteome Research 4: 400, the entire contents of each of which are expressly incorporated herein by reference. Both studies defined the set of proteins on the surface of naïve and activated T cells to generate a working list of proteins potentially found on the T cell surface. This list (>600 proteins) was compared to the total proteome of the buffy coat (>2000 proteins) from twenty-five patients treated with Coenzyme Q10 as monotherapy.
A total of 62 common proteins shared between T cell surface proteome and the buffy coat proteome were identified. The relative change in protein levels (on the y-axis) represents the slope of the line derived from the linear regression of the level of each protein at the start of Coenzyme Q10 treatment versus the level at the end of Coenzyme Q10 treatment. FIG. 1 provides a schematic of the plot slope of linear regression representing the change in protein expression over time.

[5] = 25 mg/kg twice daily for 21 days
[6] = 50 mg/kg twice daily for 21 days
[7] = 100 mg/kg twice daily for 21 days

Structure (SMILES): COC1=C(OC)C(=O)C(C/C=C(\C)CC/C=C(\C)CC/C=C(\C)CC/C=C(\C)CC/C=C(\C)CC/C=C(\C)CC/C=C(\C)CC/C=C(\C)CC/C=C(\C)CCC=C(C)C)=C(C)C1=O [Coenzyme Q10]
- Frequency of cytotoxic T cells (human PBMCs (T cells)): increased
- Frequency of helper T cells (human PBMCs (T cells)): increased
- Frequency of total T cells (human PBMCs (T cells)): increased
- Percentage of mice with TAM levels Higher than Control [1, 5]: 0%
- Percentage of mice with TAM levels Lower than Control [1, 5]: 20%
- Percentage of mice with TAM levels Similar to Control [1, 5]: 80%
- Percentage of mice with TAM levels Higher than Control [1, 6]: 0%
- Percentage of mice with TAM levels Lower than Control [1, 6]: 85.8%
- Percentage of mice with TAM levels Similar to Control [1, 6]: 14.3%
- Percentage of mice with TAM levels Higher than Control [1, 7]: 0%
- Percentage of mice with TAM levels Lower than Control [1, 7]: 44.4%
- Percentage of mice with TAM levels Similar to Control [1, 7]: 55.6%
- Tumor associated macrophages (TAMs) in tumors ([1]; 25, 50 or 100 mg/kg twice daily for 21 days): decreased
- Level of PD-L1 protein on the cell surface [2]: did not have any effect
- Proliferation of PHA-activated cytotoxic T cells [3]: increased
- Expression of CD8B in buffy coat [4]: downregulated
- Expression of CD247 in buffy coat [4]: downregulated
- Expression of CFL1 in buffy coat [4]: upregulated
- Expression of S100A8 in buffy coat [4]: upregulated
